Each structure is given as a SMILES string. “And” between values parts separate entries of the source, which are not always exact repeats. Equal entries are not always repeated. Toxic doses and inconclusive results are not listed.

The test has as its system CD2F1 mice, L1210 leukemia sc, survival T/C. The experiment in a line: NCI In Vivo Anticancer Drug Screen. Data for tumor model L1210 Leukemia (subcutaneous) in CD2F1 (CDF1) mice. To be noted: higher = longer survival. The method in brief: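 Compound given to mice bearing transplantable tumor. Survival or tumor size then recorded. Result expressed relative to vehicle-dosed control group as T/C.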

On to `CN(C)c1ccc(/C=C2\C=Cc3ccccc32)cc1`, for which the T/C is, setting by setting: (endpoint: median survival time, dose: 39.0 mg/kg/injection, schedule: Q01DX Z (sc), vehicle: carboxymethylcellulose (CMC)) 100 % of control; (endpoint: median survival time, dose: 65.0 mg/kg/injection, schedule: Q01DX Z (sc), vehicle: carboxymethylcellulose (CMC)) 100 % of control; (endpoint: median survival time, dose: 108.0 mg/kg/injection, schedule: Q01DX Z (sc), vehicle: carboxymethylcellulose (CMC)) 100 % of control; (endpoint: median survival time, dose: 180.0 mg/kg/injection, schedule: Q01DX Z (sc), vehicle: carboxymethylcellulose (CMC)) 100 % of control; (endpoint: median survival time, dose: 300.0 mg/kg/injection, schedule: Q01DX Z (sc), vehicle: carboxymethylcellulose (CMC)) 100 % of control.
In the case of `O=c1cnn(C2OC(CO)C(O)C2O)c(=O)[nH]1` (stereo not drawn), the T/C was 113 % of control (endpoint: median survival time, dose: 37.5 mg/kg/injection, schedule: Q01DX009 (ip), vehicle: saline); 120 % of control (endpoint: median survival time, dose: 75.0 mg/kg/injection, schedule: Q01DX009 (ip), vehicle: saline); 111 % of control (endpoint: median survival time, dose: 250.0 mg/kg/injection, schedule: Q01DX Z (sc), vehicle: saline); 116 % of control (endpoint: median survival time, dose: 500.0 mg/kg/injection, schedule: Q01DX Z (sc), vehicle: saline); 111 % of control (endpoint: median survival time, dose: 1000.0 mg/kg/injection, schedule: Q01DX Z (sc), vehicle: saline); 103 % of control (endpoint: median survival time, dose: 1200.0 mg/kg/injection, schedule: Q01DX009 (ip), vehicle: saline). Moreover, the T/C (endpoint: median survival time, dose: 1200.0 mg/kg/injection, schedule: Q01DX009 (sc), vehicle: saline) is 107 % of control.
Turning to `Nc1ccn(C2OC(COP(=O)(O)O)C(O)C2O)c(=O)n1` (stereo not drawn), the T/C runs as follows: (endpoint: mean survival time, dose: 22.5 mg/kg/injection, schedule: Q ##X009 (ip), vehicle: saline) 181 % of control; (endpoint: mean survival time, dose: 45.0 mg/kg/injection, schedule: Q ##X009 (ip), vehicle: saline) 206 % of control; (endpoint: mean survival time, dose: 90.0 mg/kg/injection, schedule: Q ##X009 (ip), vehicle: saline) 161 % of control; (endpoint: mean survival time, dose: 180.0 mg/kg/injection, schedule: Q ##X009 (ip), vehicle: saline) 176 % of control; (endpoint: median survival time, dose: 22.5 mg/kg/injection, schedule: Q ##X009 (ip), vehicle: saline) 179 % of control; (endpoint: median survival time, dose: 22.5 mg/kg/injection, schedule: Q## X Z (ip), vehicle: saline) 188 % of control. In addition, the T/C by setting is: (endpoint: median survival time, dose: 45.0 mg/kg/injection, schedule: Q ##X009 (ip), vehicle: saline) 198 % of control; (endpoint: median survival time, dose: 45.0 mg/kg/injection, schedule: Q## X Z (ip), vehicle: saline) 211 % of control; (endpoint: median survival time, dose: 90.0 mg/kg/injection, schedule: Q ##X009 (ip), vehicle: saline) 175 % of control; (endpoint: median survival time, dose: 90.0 mg/kg/injection, schedule: Q## X Z (ip), vehicle: saline) 183 % of control; (endpoint: median survival time, dose: 180.0 mg/kg/injection, schedule: Q ##X009 (ip), vehicle: saline) 169 % of control; (endpoint: median survival time, dose: 180.0 mg/kg/injection, schedule: Q## X Z (ip), vehicle: saline) 177 % of control.
For the compound `O=NNc1cnccn1`, the T/C was 96 % of control (endpoint: median survival time, dose: 8.6 mg/kg/injection, schedule: Q01DX009 (ip), vehicle: water); 104 % of control (endpoint: median survival time, dose: 14.4 mg/kg/injection, schedule: Q01DX009 (ip), vehicle: water); 100 % of control (endpoint: median survival time, dose: 24.0 mg/kg/injection, schedule: Q01DX009 (ip), vehicle: water); 95 % of control (endpoint: median survival time, dose: 66.66 mg/kg/injection, schedule: Q01DX009 (ip), vehicle: water); 120 % of control (endpoint: median survival time, dose: 66.67 mg/kg/injection, schedule: Q01DX009 (ip), vehicle: water).
For `O=c1[nH]c(=O)n(C2CC(O)C(CO)O2)cc1C(F)(F)F` (stereo not drawn), the T/C is, setting by setting: (endpoint: median survival time, dose: 2.5 mg/kg/injection, schedule: Q01DX009 (ip), vehicle: saline with Tween-80) 106 % of control; (endpoint: median survival time, dose: 5.0 mg/kg/injection, schedule: Q01DX009 (ip), vehicle: saline with Tween-80) 114 % of control; (endpoint: median survival time, dose: 10.0 mg/kg/injection, schedule: Q01DX009 (ip), vehicle: saline with Tween-80) 117 % of control and 121 % of control; (endpoint: median survival time, dose: 10.0 mg/kg/injection, schedule: Q01DX009 (sc), vehicle: saline) 111 % of control and 122 % of control; (endpoint: median survival time, dose: 13.3 mg/kg/injection, schedule: Q01DX009 (sc), vehicle: saline with Tween-80) 122 % of control; (endpoint: median survival time, dose: 20.0 mg/kg/injection, schedule: Q01DX009 (sc), vehicle: saline) 111 % of control. The T/C reads like this: (endpoint: median survival time, dose: 40.0 mg/kg/injection, schedule: Q01DX009 (ip), vehicle: saline with Tween-80) 153 % of control; (endpoint: median survival time, dose: 40.0 mg/kg/injection, schedule: Q01DX009 (sc), vehicle: saline) 118 % of control and 123 % of control; (endpoint: median survival time, dose: 60.0 mg/kg/injection, schedule: Q01DX009 (ip), vehicle: saline with Tween-80) 156 % of control; (endpoint: median survival time, dose: 60.0 mg/kg/injection, schedule: Q01DX009 (sc), vehicle: saline with Tween-80) 152 % of control; (endpoint: median survival time, dose: 80.0 mg/kg/injection, schedule: Q01DX009 (ip), vehicle: saline with Tween-80) 150 % of control; (endpoint: median survival time, dose: 80.0 mg/kg/injection, schedule: Q01DX009 (sc), vehicle: saline with Tween-80) 154 % of control. For the same compound, the T/C runs as follows: (endpoint: median survival time, dose: 90.0 mg/kg/injection, schedule: Q01DX009 (sc), vehicle: saline with Tween-80) 167 % of control; (endpoint: median survival time, dose: 105.0 mg/kg/injection, schedule: Q01DX009 (sc), vehicle: saline with Tween-80) 150 % of control; (endpoint: median survival time, dose: 120.0 mg/kg/injection, schedule: Q01DX009 (sc), vehicle: saline with Tween-80) 158 % of control and 162 % of control; (endpoint: median survival time, dose: 135.0 mg/kg/injection, schedule: Q01DX009 (sc), vehicle: saline with Tween-80) 162 % of control; (endpoint: median survival time, dose: 160.0 mg/kg/injection, schedule: Q01DX009 (ip), vehicle: saline with Tween-80) 121 % of control; (endpoint: median survival time, dose: 160.0 mg/kg/injection, schedule: Q01DX009 (sc), vehicle: saline) 120 % of control. The T/C is 120 % of control (endpoint: median survival time, dose: 180.0 mg/kg/injection, schedule: Q01DX009 (sc), vehicle: saline with Tween-80); 161 % of control (endpoint: median survival time, dose: 180.0 mg/kg/injection, schedule: Q01DX009 (sc), vehicle: saline); 151 % of control (endpoint: median survival time, dose: 211.2 mg/kg/injection, schedule: Q01DX009 (sc), vehicle: saline with Tween-80); 158 % of control (endpoint: median survival time, dose: 240.0 mg/kg/injection, schedule: Q01DX009 (sc), vehicle: saline); 108 % of control (endpoint: median survival time, dose: 320.0 mg/kg/injection, schedule: Q01DX009 (ip), vehicle: saline with Tween-80); 156 % of control (endpoint: median survival time, dose: 320.0 mg/kg/injection, schedule: Q01DX009 (sc), vehicle: saline with Tween-80). In addition, the T/C (endpoint: median survival time, dose: 320.0 mg/kg/injection, schedule: Q01DX009 (sc), vehicle: saline) is 119 % of control and the T/C (endpoint: median survival time, dose: 960.0 mg/kg/injection, schedule: Q01DX009 (sc), vehicle: saline with Tween-80) was 122 % of control.
Regarding `Nc1ncn(C2OC(CO)C(O)C2O)c(=O)n1` (stereo not drawn), the T/C was 97 % of control (endpoint: median survival time, dose: 0.2 mg/kg/injection, schedule: Q01DX009 (ip), vehicle: saline); 102 % of control (endpoint: median survival time, dose: 0.2 mg/kg/injection, schedule: Q01DX009 (sc), vehicle: saline); 113 % of control (endpoint: median survival time, dose: 0.4 mg/kg/injection, schedule: Q01DX009 (ip), vehicle: saline); 115 % of control and 119 % of control (endpoint: median survival time, dose: 0.4 mg/kg/injection, schedule: Q01DX009 (sc), vehicle: saline); 120 % of control (endpoint: median survival time, dose: 0.8 mg/kg/injection, schedule: Q01DX009 (sc), vehicle: saline); 158 % of control (endpoint: median survival time, dose: 1.07 mg/kg/injection, schedule: Q01DX009 (sc), vehicle: saline). Moreover, the T/C runs as follows: (endpoint: median survival time, dose: 1.6 mg/kg/injection, schedule: Q01DX009 (ip), vehicle: saline) 150 % of control; (endpoint: median survival time, dose: 2.1 mg/kg/injection, schedule: Q01DX009 (ip), vehicle: saline) 178 % of control; (endpoint: median survival time, dose: 2.1 mg/kg/injection, schedule: Q01DX009 (sc), vehicle: saline) 187 % of control; (endpoint: median survival time, dose: 7.2 mg/kg/injection, schedule: Q01DX009 (ip), vehicle: saline) 206 % of control and 88 % of control; (endpoint: median survival time, dose: 9.6 mg/kg/injection, schedule: Q01DX009 (ip), vehicle: saline) 113 % of control; (endpoint: median survival time, dose: 28.8 mg/kg/injection, schedule: Q01DX009 (sc), vehicle: saline) 106 % of control.
`CCN(CC)CCNc1ccc(CO)c2sc3ccccc3c(=O)c12`: the T/C (endpoint: median survival time, dose: 10.0 mg/kg/injection, schedule: Q01DX009 (ip), vehicle: water) is 103 % of control and 110 % of control and 116 % of control; the T/C (endpoint: median survival time, dose: 20.0 mg/kg/injection, schedule: Q01DX009 (ip), vehicle: water) was 113 % of control and 115 % of control and 121 % of control; the T/C (endpoint: median survival time, dose: 40.0 mg/kg/injection, schedule: Q01DX009 (ip), vehicle: water) was 150 % of control; the T/C (endpoint: median survival time, dose: 80.0 mg/kg/injection, schedule: Q01DX009 (ip), vehicle: water) is 100 % of control; the T/C (endpoint: median survival time, dose: 160.0 mg/kg/injection, schedule: Q01DX009 (ip), vehicle: water) was 103 % of control and 86 % of control and 94 % of control.
Take `Nc1nc2c(ncn2C2CC(O)C(CO)O2)c(=O)[nH]1` (stereo not drawn): the T/C (endpoint: median survival time, dose: 31.0 mg/kg/injection, schedule: Q01DX Z (sc), vehicle: water) was 100 % of control.

These data come from PubChem BioAssay AID258 (DTP/NCI, 2004).
